Like-named read-outs stand apart in the source and are kept apart here.
What was measured:
[1] = tested on: MCM6; details: ref [56], cited from earlier work
[2] = molecular target: T1, MCM6 winged-helix domain (WHD) C721S mutant, residues 708-821 (human, UniProt Q14566 708-821, C721S); test: fluorescence polarisation
T1 sequence (looked up): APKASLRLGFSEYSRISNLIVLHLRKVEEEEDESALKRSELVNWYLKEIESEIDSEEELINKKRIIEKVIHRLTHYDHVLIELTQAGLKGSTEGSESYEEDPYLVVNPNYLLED

Molecule	interaction with MCM6 ([1]; both MBD-C and D regions mutated)	interaction with MCM6 ([1]; either MBD-C or D regions deleted)	fold, competition of MBD-C against FITC-MBD-C relative to FITC-MBD-D [2]
Bloom syndrome helicase [BLM]	weakened the interaction	do not interact	–
WLSSDVICI (peptide, UniProt P54132 230-238, looked up) [BLM MCM6 binding domain C peptide (BLM 230-238), unlabeled]	–	–	1.7 fold

— article PMC12176262 (The Febs Journal, 2025)
